Results on 2 compounds are retold here after US5980913A, “Peptides having immunomodulatory activity” (Biochem Pharma, Inc., priority 1994, dated 1999).

Assay type in all cases: cell-based, C57BL/6 mice
For one assay, the system named is B cells. The assay can be described thus: Activation of B cells by mitogenic proliferation (LPS, PWM). From the text: (§1) c) Activation of T or B cells by Mitogenic Proliferation
(§2) A mitogenic lectin (mitogen) is a glycoprotein which binds and cross-links specific cells surface carbohydrate determinants, and will polyclonally stimulate lymphoid cells. Lymphocyte activation by either antigens or mitogens results in intracellular changes and the subsequent development into a lymphoblast. Mitogenic stimulation of lymphocytes in vitro is believed to mimic the series of events which occur in vivo following their stimulation by specific antigens. PHA and ConA; PWM and LPS mitogens can be used as a measurement of T cell and B cell activity, respectively. Briefly, the spleen mononuclear leukocytes from C57BL/6 mice are incubated in the presence or absence of mitogens with or without candidate drugs. After 72 hours or 5 days, ^3 H-thymidine incorporation is recorded as an indication of cell proliferation.
(§3) Lymphocytes were isolated from mice spleen or human blood in accordance to methods well known in the art. 100 μl of cell suspension of 2×10^6 cells/ml was added per well (2x10^5 cells/well) and incubated in the presence of lectin at the following concentrations:
PWM=0.2 to 0.02% final concentration
(§4) Cells were incubated for 3 days with PHA or ConA, or 5 days with PWM or LPS. 1 μCi of tritiated thymidine was added to each well for the last 6 hours (or 0.5 μCi for 18 hrs). The cells were harvested in a cell Harvester (Tortech®) and counted in a Beta counter.

The next assay deals with T cells. The assay can be described thus: Activation of T cells by mitogenic proliferation (ConA, PHA). Particulars: concentration not given; 0 not defined.
Source text: as §1, §2, §3
PHA=0.01% to 0.001% final concentration
as §4

A further assay concerns P815 target cells. Briefly: Cytotoxic T lymphocytes (CTL) assay, 51Cr release, after 5 days mixed culture with drug. The source says: 1. Cytotoxic T Lymphocytes (CTL) Mixed Lymphocyte Reaction (MLR) and Mitogenic Response Assays
The protocols used are described in Hudson L., Haay F., Pratical immunology, 3rd edition, Blackwell, Scientific publications, Oxford 1989, p. 158-162, and p.447.
Lymphocytes were isolated from C57BL/6 mice and DBA/2 mice in accordance to techniques well known in the art. Cell concentration was adjusted to 10×10^6 cell/ml for each assay. The cells isolated from DBA/2 mice were irradiated with 3000 Rads.
In a 6 well plate, each well was set up with:
The cells were incubated for five days at 37° C. in 5% CO2, after which CTL and MLR assays were performed.
a) Cytotoxic T Lymphocytes (CTL)
P815 target cells were labelled with Cr^51 (0.1 mCi). After labelling, the cells were washed three times and resuspended to a concentration of 5×10^4 cells/ml in media. p T cells were then counted and diluted to obtain a concentration of 2.5×10^6 cells/ml, and then further diluted to obtain the following effector:target ratios:
100 μl of target cells+100 μl of CTLs were incubated for 4 hours. In parallel wells, 100 μl of target cells+100 μl of media were incubated for spntaneous release. After incubation, cells were centrifuged and 100 μl of supernatant was then counted using a gamma counter.
Results are expressed as % specific ^51 Cr release= [formula] where ER=experimental release, SR=spontaneous releaase, and
0 represents less than 20%, + represents 20-40%, ++ represents 40-60%, +++ represent 60-80%, and ++++ represents 80% and over.

Setting [1] is: concentration not given, 0 not defined.

Where a SMILES comes first, the peptide text is derived from it. [ ]: non-standard residue; d: D form.

Regarding `NCCCC[C@H](N)C(=O)N[C@@H](CC(N)=O)C(=O)N1CCC[C@H]1C(=O)N[C@@H](Cc1ccc(O)cc1)C(=O)O` [PEPTIDE #1, H-Lys-Asn-Pro-Tyr-OH] (H-KNPY-OH), the “Activation of B Cells, PWM” value with B cells (10^-6 - 10^-4 M) was 1.7 - 4 ×. Besides, the “Activation of B Cells, LPS” value in the assay with B cells (10^-10 - 10^-4 M) is 1.9 - 3.6 ×. Also, in the assay with B cells (summary of Table 1), the “stimulation of B cells in vitro (in words)” value was “stimulates CTL's and B cells”. In addition, in the assay with T cells, the “Activation of T Cells, ConA” value was 0 and the “Activation of T Cells, PHA” value came out at 0. Further, the “CTL, % augmentation compared to IL-2 (IL-2 is 100%)” value in the assay on P815 target cells (10^-7 M) was “++ (++ represents 40-60%)”. Further, the “stimulation of CTL in vitro (in words)” value with P815 target cells (summary of Table 1) is “stimulates CTL's”.
For `NCCCC[C@@H](N)C(=O)N[C@@H](CC(N)=O)C(=O)N1CCC[C@H]1C(=O)N[C@@H](Cc1ccc(O)cc1)C(=O)O` [PEPTIDE #5, H-(D-Lys)-Asn-Pro-Tyr-OH] (H-[dK]NPY-OH), in the assay on B cells (setting [1]), the “Activation of B Cells, LPS” value was 0 and the “Activation of B Cells, PWM” value is recorded as 0. In the assay on T cells, the “Activation of T Cells, ConA” value stood at 0 and the “Activation of T Cells, PHA” value was 0. The “CTL, % augmentation compared to IL-2 (IL-2 is 100%)” value in the assay on P815 target cells (10^-9 M) is “++++ (++++ represents 80% and over)”.
